Measurements taken from patent US20230303712A1, “METHODS OF TREATING GLIOBLASTOMA” (Ramot at Tel-Aviv University Ltd., priority 2020, published 2023).

How the values were obtained:
[1] = tested on: human GB cells (PD-GB4, U251, PD-GB 1, PD-GB3); test: 3D spheroid invasion in Matrigel, human GB cells co-cultured with human microglia; format: cell-based
Description: Tumor spheroids. Tumor spheroids were prepared from mCherry/iRFP/GFP-labeled patient-derived, human U251 or murine GB cells (GL261, iAGR53, PNp53, EGFRviii-shP16), either alone or co-cultured with unlabeled primary human/murine microglia (4:1 ratio), using our modified hanging-drop method, as we previously described. For assessment of cell invasion, GB spheroids (4,000 cells/sphere) were embedded in Matrigel (Corning), seeded in a 96-well plate, and incubated with complete DMEM or complete DMEM supplemented with SELPi (0.5 µM). […] For FACS analysis, GB spheroids (8,000 cells/sphere) were embedded in Matrigel, seeded in a 12-well plate, and treated with complete DMEM, 0% serum microglia medium or microglia CM for 24-48 h. Cells were then recovered using Cell Recovery Solution (Corning) and further analyzed by FACS.

E-Selectin = target: T1, E-Selectin (Homo sapiens, UniProt P16581); settings: cited from earlier work
T1 sequence (P16581 22-610): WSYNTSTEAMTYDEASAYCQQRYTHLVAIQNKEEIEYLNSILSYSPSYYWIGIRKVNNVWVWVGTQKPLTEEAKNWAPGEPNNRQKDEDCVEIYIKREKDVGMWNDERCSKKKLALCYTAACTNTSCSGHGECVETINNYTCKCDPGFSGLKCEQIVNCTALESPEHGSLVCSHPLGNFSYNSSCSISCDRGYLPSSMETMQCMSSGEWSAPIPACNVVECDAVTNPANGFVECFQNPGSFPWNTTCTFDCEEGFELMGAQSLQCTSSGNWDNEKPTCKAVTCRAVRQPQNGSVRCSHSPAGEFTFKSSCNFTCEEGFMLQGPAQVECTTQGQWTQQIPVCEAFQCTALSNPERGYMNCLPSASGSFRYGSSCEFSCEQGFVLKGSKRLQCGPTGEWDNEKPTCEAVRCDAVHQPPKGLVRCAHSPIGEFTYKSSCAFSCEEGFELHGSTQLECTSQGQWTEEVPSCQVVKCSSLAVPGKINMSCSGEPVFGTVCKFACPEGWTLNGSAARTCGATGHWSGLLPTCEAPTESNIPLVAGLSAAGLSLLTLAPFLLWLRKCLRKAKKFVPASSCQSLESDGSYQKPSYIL

COc1ccc(C2CC(c3c(O)cc(C)oc3=O)=NCCS2)c(OC)c1 (stereo not drawn) [SELPi, 3-[7-(2,4-Dimethoxyphenyl)-2,3,6,7-tetrahydro-1,4-thiazepin-5-yl]-4-hydroxy-6-methyl-2H-pyran-2-one]
3D spheroid invasion ([1]; PD-GB4 GB cells with human microglia, 0.5 µM SELPi or SELP knockdown, 72 h): reduced invasion
3D spheroid invasion, further human GB models ([1]; human U251, PD-GB 1, PD-GB3): effect of SELPi on GB spheroids was observed
inhibiting effect on E-Selectin (E-Selectin): no inhibiting effects
